Reference: US9198909B1, “Materials and methods for inhibiting mamalian S-nitrosoglutathione reductase” (Indiana University Research and Technology Corporation, priority 2007, dated 2015)
Values belong to the molecule of their own block, whether it stands above or below them.

Legend:
RAW 264.7 cells = experiment: Nitroso species accumulation in RAW 264.7 cells (triiodide chemiluminescence); type: cell-based, rat
Description: Referring now to FIG. 3, briefly, RAW 264.7 cells were incubated with 500 μM GSNO alone (γ) or in presence of 33 μM Compound 6 (◯) or 7 (Δ) or 8 (▪). At indicated times or at 4 hr (in case of B), the cells were lysed and the lysate was analyzed for protein and nitroso species concentration by Bradford and chemiluminescence assay, respectively. For details, see Materials and methods. Data represents mean±SE (n=3−12).
RAW 264.7 cells were cultured in DMEM medium supplemented with 10% FBS, 200 U/ml of penicillin and 200 μg/mL of streptomycin. The cells were incubated at 37° C. in an atmosphere containing 5% CO2 and 95% air. For the experiments, 1-2×10^6 cells were plated in six-well plates a day before the experiment. On the day of the assay the medium was replaced with 3 ml of fresh medium and the cells were treated with compounds for a predetermined length of time. Following the incubation period, the cells were washed three times with PBS and scraped off the plate in 250 μl of lysis buffer (50 mM potassium phosphate pH 7.0 containing 50 mM NEM and 1 mM EDTA). Cells were lysed by sonication using a micro tip probe (three pulses of 30% duty cycle; 2 output control on a Fisher Sonicator). Cell debris was pelleted by centrifugation (10 min at 16,000 g) and the cell lysate was analyzed for protein concentration using the Bio-Rad dye-binding protein assay. The concentration of nitroso compounds in the cell lysate was determined using the triiodide based chemiluminescence method using a Sievers 280 nitric oxide analyzer. Briefly, cell lysates were treated with 15% v/v of a sulfanilamide solution (5% w/v in 0.2 M HCl) and kept at room temperature for 5 min to remove nitrite. The triodide mixture was prepared fresh every day as described earlier and kept at 60° C. in the reaction vessel. The concentration of nitroso species was derived from a standard curve generated using GSNO. For determining the amount of the small size nitroso compounds in the cell lysate, a 5 kDa-cutoff Amicon ultra filtration unit was used according to the supplier's instructions. The amount of s-nitrosothiols in the cell lysate was determined by treating initially passing the cell lysate through a microspin column and treating the eluate with 5 mM HgCl2 before determining the nitroso compound concentration using chemiluminescence. For some experiments the cells were pretreated with the compounds for 16 hours prior to the day of experiment.

GSNOR [1] = target: T1, GSNOR (Homo sapiens, UniProt P11766); experiment: ADH isozyme selectivity study: GSNOR; type: biochemical; parameters: made in house; host or cells: E. coli; conditions: about 5 μM inhibitor, pH 7.5
Description: (§1) Referring now to Table 2, briefly inhibition studies were performed in presence or absence of about 5 μM inhibitor. These studies were carried out at 25° C. in 50 mM potassium phosphate pH 7.5 including 0.1 mM EDTA. The enzymes activities were measured by following the changes in absorbance at 340 nm. The values show the percent reduction in the enzyme activity (from a minimum of two measurements) caused by the inhibitor. […] Studies with β2β2-, σσ-, π-ADH and involving compounds 5-8 were performed in 0.05% DMSO. Studies with GSNOR were performed in presence of 1% DMSO, except when compound 4 was the inhibitor. Studies with compound 4 were performed in 0.36% DMSO. DMSO at 0.36% inhibited β2β2-, σσ-, and π-ADH by 24, 18, and 9%, respectively. Studies with β2β2-ADH involved adding 3.5 μg of the enzyme to the assay mixture including 2 mM NAD^+, 1 mM ethanol and the inhibitor.
Studies with σσ-ADH involved adding 0.5 μg of enzyme to the assay mixture containing 2 mM NAD^+, 30 mM ethanol and the inhibitor. Studies with π-ADH involved adding 19.5 μg of the enzyme to the assay mixture including 1 mM NAD^+, 35 mM ethanol and the inhibitor. Studies with GSNOR involved adding 0.1 μg of the enzyme to an assay mixture including 15 μM NADH, 5 μM GSNO and the inhibitor.
Target sequence in this assay (P11766 2-374 limits assumed): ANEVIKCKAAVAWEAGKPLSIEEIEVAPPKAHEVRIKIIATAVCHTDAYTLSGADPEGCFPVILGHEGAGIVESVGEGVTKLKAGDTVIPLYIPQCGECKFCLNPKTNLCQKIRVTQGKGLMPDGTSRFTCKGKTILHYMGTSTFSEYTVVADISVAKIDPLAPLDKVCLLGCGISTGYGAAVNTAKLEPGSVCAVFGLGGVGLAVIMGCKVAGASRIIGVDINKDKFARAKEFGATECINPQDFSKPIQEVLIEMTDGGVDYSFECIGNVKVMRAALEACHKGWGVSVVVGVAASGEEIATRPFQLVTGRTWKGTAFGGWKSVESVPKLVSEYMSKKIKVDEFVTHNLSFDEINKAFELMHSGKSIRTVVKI

σ-ADH = target: T2, σ-ADH (Homo sapiens, UniProt P40394); experiment: ADH isozyme selectivity study: σ-ADH; type: biochemical; conditions: about 5 μM inhibitor, pH 7.5, 2 mM NAD+, 30 mM ethanol
T2 construct: made in house; host or cells: E. coli
Description: as §1
(§2) Studies with σσ-ADH involved adding 0.5 μg of enzyme to the assay mixture containing 2 mM NAD^+, 30 mM ethanol and the inhibitor. Studies with π-ADH involved adding 19.5 μg of the enzyme to the assay mixture including 1 mM NAD^+, 35 mM ethanol and the inhibitor. […]
(§3) Inhibition of the β2β2-, π-, and σ-ADH was evaluated by determining the inhibitory effect of GSNOR inhibitors on the rate of oxidation of ethanol by each of these ADH isozymes. […]

GSNOR [2] = target: T1, GSNOR; experiment: GSNOR substrate kinetics with octanol; type: biochemical; conditions: octanol versus GSNO
Description: GSNOR is an alcohol dehydrogenases and like other members of ADH family, is capable of oxidizing and reducing primary alcohols and aldehydes with the help of a molecule of NAD(H). Octanol was chosen as the substrate in the initial screening assay as it is bulky like GSNO, but has 200-fold higher KM value (1 mM) and a kcat value (200 min-1) that is more than 2 order of magnitude lower than that of GSNO. This allows the initial velocity conditions to prevail for a period up to 10 min (data not shown) and it enables conducting a large number of concurrent assays in a384 well plate format. The pH of the assay was adjusted to pH 10 in order to get significant rate of oxidation of octanol in the absence of compounds. The screening for GSNOR inhibitors was performed in the presence of saturating concentration of NAD^+ and an un-saturating concentration of octanol thereby increase the probability of identifying compounds that bind, only or primarily in the GSNO binding site of GSNOR. This was deemed desirable as there are many dehydrogenases inside the cells and compounds binding in the coenzyme binding site are more likely to be nonspecific inhibitors of GSNOR, than compounds that bind primarily to the form of GSNOR that binds GSNO.
Target sequence in this assay (P11766 whole entry): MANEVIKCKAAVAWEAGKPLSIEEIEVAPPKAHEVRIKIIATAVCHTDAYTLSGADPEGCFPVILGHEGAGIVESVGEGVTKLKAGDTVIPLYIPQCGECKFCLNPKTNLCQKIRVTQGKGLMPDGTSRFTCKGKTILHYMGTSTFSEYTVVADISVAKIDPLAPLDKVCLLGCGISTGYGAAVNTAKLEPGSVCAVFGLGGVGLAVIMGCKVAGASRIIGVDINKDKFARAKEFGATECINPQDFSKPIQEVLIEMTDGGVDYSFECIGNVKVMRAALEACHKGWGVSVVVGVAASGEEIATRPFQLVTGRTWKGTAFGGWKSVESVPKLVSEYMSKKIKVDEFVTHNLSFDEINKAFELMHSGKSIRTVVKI

GSNOR [3] = target: T1, GSNOR; conditions: read-out: KD of NADH for GSNOR; cited from earlier work
Target sequence in this assay (P11766 whole entry): as above

GSNOR [4] = target: T1, GSNOR; experiment: Dead-end inhibition studies of GSNOR; type: biochemical; parameters: made in house; host or cells: E. coli; conditions: pH 7.5, 25° C., GSNO held at 10 μM
Description: Referring now to Table 3, inhibition experiments were performed at 25° C. in 50 mM potassium phosphate (pH 7.5) including 0.1 mM EDTA. A minimum of five concentrations of the varied substrate and three inhibitor concentrations were used for each experiment. NADH and GSNO concentrations were held at 15 or 10 μM, respectively when present as a constant substrate in the assay. The Kis and Kii values are respectively the slope and intercept inhibition constants and are listed along with their associated standard errors. All data were fit to a competitive (C), noncompetitive (NC), or uncompetitive (UC) inhibition models. The type of inhibition shown in the table represents the best fit of the data to the given model as judged from F statistics analysis. […] The dissociation constant was measured at 25° C. in 50 mM potassium phosphate pH 7.5. Each KD value is an average of three independent experiments and is shown with the associated standard error.
Inhibition experiments with the GSNOR inhibitors were conducted at 25° C. in 3 ml of 50 mM potassium phosphate (pH 7.5) containing 0.1 mM EDTA. […] A minimum of three inhibitor concentrations were used in these assays and the rate of NADH and GSNO consumption was determined spectrophotometrically by following change in absorbance at 340 nm. […]
Target sequence in this assay (P11766 2-374 limits assumed): as the sequence (P11766 2-374 limits assumed) above

GSNOR•NADH complex [5] = target: T3, GSNOR•NADH complex (Homo sapiens, UniProt P11766); experiment: Fluorescence equilibrium binding to GSNOR•NADH complex; conditions: 1.7 μM NADH, 2 μM GSNOR, 50 μM compound 8
T3 construct: made in house; host or cells: E. coli
Description: Referring now to FIG. 2, (A) Changes in the fluorescence of NADH (curve a) upon sequential addition of GSNOR (curve b) and compound 8 (curve c). To a solution of 1.7 μM NADH were added 2 μM GSNOR and 50 μM compound 8 in sequence and the fluorescence of the solution measured each time (λexc=350 nm; λemm=375-550 nm); (B) Changes in the fluorescence of NADH (curve a) upon sequential addition of GSNOR (curve b), 12-HDDA (curve c) and compound 8 (curve d). To a solution of 1.7 μM NADH were added 2 μM GSNOR, 810 μM 12-HDDA and 50 μM compound 8 in sequence and the fluorescence measured each time (λexc=350 nm; λemm=375-550 nm); (C) Binding of compound 8 to GSNOR•NADH complex. The change in fluorescence of a 1.7 μM NADH and 2 μM GSNOR mixture (λexc=350 nm; λemm=455 nm) with increasing concentrations of compound 8 was fitted to a single site binding model (equation 1; see materials and methods) using the Graphpad Prizm 4. All of the fluorescence studies were conducted at room temperature in 50 mM potassium phosphate pH 7.5.
Referring now to Table 3, inhibition experiments were performed at 25° C. in 50 mM potassium phosphate (pH 7.5) including 0.1 mM EDTA. […] The dissociation constant was measured at 25° C. in 50 mM potassium phosphate pH 7.5. […]
Fluorescence studies were conducted in 50 mM potassium phosphate pH 7.5, at room temperature using a Fluoromax-2 fluorescence spectrometer (Instruments S.A., Inc., Edison, N.J.). The equilibrium dissociation constant of GSNOR inhibitors was determined by measuring the changes in the fluorescence of GSNOR bound NADH (λexc=350 nm; λemm=455 nm) upon the addition of inhibitor. […] The decrease in fluorescence at 455 nm with each addition of inhibitor was plotted against the final concentration of inhibitor and the data were fitted to equation 1 using nonlinear regression to obtain the dissociation constant of the inhibitor for GSNOR-NADH complex,
[formula] In equation 1, ΔF is the change in the fluorescence at 455 nm upon the addition of inhibitor. ΔFM is the maximum fluorescence change that was obtained from curve fitting. […]

π-ADH = target: T4, π-ADH (Homo sapiens, UniProt P08319); experiment: ADH isozyme selectivity study: π-ADH; type: biochemical; conditions: about 5 μM inhibitor, pH 7.5, 1 mM NAD+, 35 mM ethanol
T4 construct: made in house; host or cells: E. coli
Description: as §1, §2, §3

GSNOR•NADH complex [6] = target: T3, GSNOR•NADH complex; conditions: alcohol substrate, abortive ternary complex; read-out: dissociation constant for the GSNOR•NADH complex; cited from earlier work
GSNOR [7] = target: T1, GSNOR; experiment: GSNOR inhibition at pH 7.5 (GSNO, NADH); type: biochemical; parameters: made in house; host or cells: E. coli; conditions: Table 1; pH not stated
Description: Referring now to Table 1, inhibition was studied at pH 10. These assays were performed in 0.1 M sodium glycine containing 1 mM octanol, 1 mM NAD^+, 0.1 mM EDTA and 50 μM inhibitor. Inhibition studies at pH 7.5 were performed in 50 mM potassium phosphate pH 7.5 that included 15 μM NADH, 10 μM GSNO, 0.1 mM EDTA and 50 μM inhibitor. The data file to a model consisted with partial inhibition and a hill coefficient of 2.4 in the inhibition curve. The screening for GSNOR inhibitors was performed using a library of 60,000 compounds from ChemDiv Inc in the Chemical Genomics Core facility at Indiana University. Screening was conducted in 384 well plates and involved incubating GSNOR with 12.5 μM compound, 1 mM each of NAD^+ and octanol in 0.1 M sodium glycine pH 10. Enzyme activity was determined by measuring the rate of production of NADH spectrophotometrically at 340 nm. Inhibition of GSNOR was calculated from the ratio of enzyme activity in the presence of compounds to that in no compound controls performed on the same assay plate. Following their identification from the high-throughput screening, the GSNOR inhibitory properties of the initial hits were confirmed at the pH 10 using 12-hydroxydodecanoic acid as the substrate and at pH 7.5 using GSNO as the substrate (see the brief description of Table 1 for details on how the assay was carried out.)
Target sequence in this assay (P11766 2-374 limits assumed): as above

T3 sequence (P11766 2-374 limits assumed, one chain of several): as the sequence (P11766 2-374 limits assumed) above
T4 sequence (P08319 whole entry): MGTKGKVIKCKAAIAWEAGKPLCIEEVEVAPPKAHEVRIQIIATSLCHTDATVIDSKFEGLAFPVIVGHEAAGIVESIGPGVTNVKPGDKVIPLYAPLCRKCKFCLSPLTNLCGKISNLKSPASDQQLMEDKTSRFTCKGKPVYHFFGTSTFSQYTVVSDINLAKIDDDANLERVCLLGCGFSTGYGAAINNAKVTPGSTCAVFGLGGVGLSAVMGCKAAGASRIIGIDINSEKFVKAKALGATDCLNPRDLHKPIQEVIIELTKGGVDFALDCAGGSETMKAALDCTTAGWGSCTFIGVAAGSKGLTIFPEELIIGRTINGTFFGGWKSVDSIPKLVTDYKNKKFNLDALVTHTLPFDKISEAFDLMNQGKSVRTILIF
T2 sequence (P40394 whole entry): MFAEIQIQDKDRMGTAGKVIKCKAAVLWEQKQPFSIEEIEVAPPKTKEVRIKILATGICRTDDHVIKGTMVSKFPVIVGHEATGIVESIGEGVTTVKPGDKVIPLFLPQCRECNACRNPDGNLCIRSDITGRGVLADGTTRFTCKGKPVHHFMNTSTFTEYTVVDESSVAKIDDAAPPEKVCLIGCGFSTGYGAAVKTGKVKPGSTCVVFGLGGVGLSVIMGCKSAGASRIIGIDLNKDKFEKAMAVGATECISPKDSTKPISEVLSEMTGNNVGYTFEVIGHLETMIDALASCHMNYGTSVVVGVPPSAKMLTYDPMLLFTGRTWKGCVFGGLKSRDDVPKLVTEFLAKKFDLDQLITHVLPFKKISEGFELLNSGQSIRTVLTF

SMILES: N[C@@H](CCC(=O)N[C@@H](CSN=O)C(=O)NCC(=O)O)C(=O)O [GSNO, s-nitrosoglutathione]
buildup of nitrosylated compounds in cells (RAW 264.7 cells; 500 μM GSNO alone): significant buildup
time to equilibrium level of nitrosylated compounds (RAW 264.7 cells; 500 μM GSNO alone): ≤ 1 h

inhibition of GSNOR (in words) (GSNOR [1]): modestly good inhibitor
inhibition of σ-ADH (σ-ADH): significant inhibition
SMILES: CC(=O)Oc1ccc(C2Nc3ccc(C(=O)O)cc3C3C=CCC32)c(OC(C)=O)c1 (stereo not shown) [Compound 5]

KM value, fold higher than GSNO (GSNOR [2]): 200 fold
SMILES: CCCCCCCCO [octanol]

SMILES: NC(=O)C1=CN([C@@H]2O[C@H](COP(=O)(O)OP(=O)(O)OC[C@H]3O[C@@H](n4cnc5c(N)ncnc54)[C@H](O)[C@@H]3O)[C@@H](O)[C@H]2O)C=CC1 [NADH]
Kd (GSNOR [3]): 0.05 µM

type of inhibition against varied NADH (GSNOR [4]): uncompetitive
SMILES: CC(=O)c1ccc(-n2c(CCC(=O)O)ccc2-c2ccccc2)cc1 [Compound 6]
nitrosylation, fold higher than Compound 7 (RAW 264.7 cells; 33 μM initial concentration, 500 μM GSNO, 4 hr): 3 fold
decrease in nitrosylated species relative to amounts at 4 hours (RAW 264.7 cells; exposure up to 24 hours, data not shown): 80%
effect on fluorescence of GSNOR bound NADH (GSNOR•NADH complex [5]): quenched the NADH fluorescence

inhibition of π-ADH (π-ADH): inhibited π-ADH more than GSNOR
SMILES: Cc1ccc(C)c(-c2csc(-c3cc4ccc(O)cc4oc3=O)n2)c1 [Compound 4]

SMILES: O=C(O)CCCCCCCCCCCO [Compound 12-HDDA, 12-hydroxydodecanoic acid]
Kd (GSNOR•NADH complex [6]): 170 µM

inhibition of GSNOR compared with compound 5 (ester) (GSNOR [7]): three fold higher inhibition
SMILES: O=C(O)c1ccc2c(c1)C1C=CCC1C(c1ccc(O)cc1O)N2 (stereo not shown) [hydrolyzed form of compound 5]
